Results: ChEMBL document CHEMBL1201862, “PubChem BioAssay data set” (2004)
Calls of active or inactive are those of the source.

Tests used:
[1] = target: Glyceraldehyde-3-phosphate dehydrogenase (Homo sapiens, UniProt P04406)
Bcl-2-related protein A1 [2] = target: T1, Bcl-2-related protein A1 (Mus musculus, UniProt Q07440); assay: Bfl-1 inhibitors blocking BH3 peptide binding, confirmation, biochemical, TR-FRET, mouse Bfl-1 (AID 621);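 also: TR-FRET binding of GST-Bfl-1 to FITC-labelled Bid peptide via terbium antibody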
T1 sequence (Q07440 whole entry): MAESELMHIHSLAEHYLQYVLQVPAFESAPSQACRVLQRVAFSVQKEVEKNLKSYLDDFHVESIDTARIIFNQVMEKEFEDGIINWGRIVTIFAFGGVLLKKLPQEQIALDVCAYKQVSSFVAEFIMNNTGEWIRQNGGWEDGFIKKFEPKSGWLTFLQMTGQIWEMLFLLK

Bcl-2-related protein A1 [3] = target: T1, Bcl-2-related protein A1; assay: Bfl-1 binding inhibitors, SAR follow-up, biochemical, fluorescence polarization (AID 1070)
[4] = target: DNA dC->dU-editing enzyme APOBEC-3A (Homo sapiens, UniProt P31941); assay: Dose Response confirmation of small molecule APOBEC3A DNA Deaminase Inhibitors via a fluorescence-based single-stranded DNA deaminase assay. [Related pubchem assays (depositor defined):AID493011, AID493024]; format: functional
[5] = target: DNA dC->dU-editing enzyme APOBEC-3G (Homo sapiens, UniProt Q9HC16); format: functional;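 also: Dose-response counterscreen measuring inhibition of APOBEC3G DNA deaminase activity, run while confirming APOBEC3A inhibitors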
[6] = target: Polyadenylate-binding protein 1 (Homo sapiens, UniProt P11940); assay: PABP poly(A) RNA binding inhibitors, primary screen, biochemical, fluorescence polarization, uHTS (AID 2014)
[7] = target: Eukaryotic translation initiation factor 4H (Homo sapiens, UniProt Q15056); assay: human eIF4H binding inhibitors, primary screen, translation initiation inhibitor project, biochemical, uHTS, fluorescence polarization (AID 2012)
[8] = target: Voltage-dependent T-type calcium channel subunit alpha-1H (Homo sapiens, UniProt O95180); format: functional;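 also: channel activity triggered by adding a high calcium stimulation buffer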
Estrogen receptor = target: T2, Estrogen receptor (Homo sapiens, UniProt P03372);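 also: potency for inhibiting coactivator peptide recruitment to the receptor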
T2 sequence (P03372 whole entry): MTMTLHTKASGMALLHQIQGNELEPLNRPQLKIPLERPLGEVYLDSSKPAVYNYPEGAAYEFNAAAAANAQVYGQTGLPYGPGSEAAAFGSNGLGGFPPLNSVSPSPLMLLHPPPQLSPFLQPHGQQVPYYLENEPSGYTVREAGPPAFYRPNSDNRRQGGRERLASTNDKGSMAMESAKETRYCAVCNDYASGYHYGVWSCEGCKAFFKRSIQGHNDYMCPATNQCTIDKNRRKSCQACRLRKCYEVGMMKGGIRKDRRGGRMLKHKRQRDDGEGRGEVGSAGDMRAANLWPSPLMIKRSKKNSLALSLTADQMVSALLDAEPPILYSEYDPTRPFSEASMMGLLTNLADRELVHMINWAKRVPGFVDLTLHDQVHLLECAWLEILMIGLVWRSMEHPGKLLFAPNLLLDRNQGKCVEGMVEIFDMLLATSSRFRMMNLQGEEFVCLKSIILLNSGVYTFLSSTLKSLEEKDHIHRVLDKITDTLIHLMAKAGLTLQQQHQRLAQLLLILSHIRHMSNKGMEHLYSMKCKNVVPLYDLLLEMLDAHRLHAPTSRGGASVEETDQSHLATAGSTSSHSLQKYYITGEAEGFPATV

cells [9] = assay: cells
[10] = HEp-2 cell cytotoxicity, dose response, cytotoxicity control for RSV inhibitor project, HTS (AID 2410); format: functional; conditions: human respiratory syncytial virus
[11] = cytotoxicity toward NIH3T3 fibroblasts, dose response, counter-screen, cell-based, ATP luminescence, mouse fibroblasts (AID 2010); format: functional;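 also: cells exposed to compound for about 90 hours before reading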
[12] = target: T3, Short transient receptor potential channel 4 (Mus musculus, UniProt Q9QUQ5); assay: mouse TRPC4 channel activators, dose response, cell-based, HEK293 TRPC4/mu-opioid, Fluo-4 calcium (AID 434937); format: functional
T3 sequence (Q9QUQ5 whole entry): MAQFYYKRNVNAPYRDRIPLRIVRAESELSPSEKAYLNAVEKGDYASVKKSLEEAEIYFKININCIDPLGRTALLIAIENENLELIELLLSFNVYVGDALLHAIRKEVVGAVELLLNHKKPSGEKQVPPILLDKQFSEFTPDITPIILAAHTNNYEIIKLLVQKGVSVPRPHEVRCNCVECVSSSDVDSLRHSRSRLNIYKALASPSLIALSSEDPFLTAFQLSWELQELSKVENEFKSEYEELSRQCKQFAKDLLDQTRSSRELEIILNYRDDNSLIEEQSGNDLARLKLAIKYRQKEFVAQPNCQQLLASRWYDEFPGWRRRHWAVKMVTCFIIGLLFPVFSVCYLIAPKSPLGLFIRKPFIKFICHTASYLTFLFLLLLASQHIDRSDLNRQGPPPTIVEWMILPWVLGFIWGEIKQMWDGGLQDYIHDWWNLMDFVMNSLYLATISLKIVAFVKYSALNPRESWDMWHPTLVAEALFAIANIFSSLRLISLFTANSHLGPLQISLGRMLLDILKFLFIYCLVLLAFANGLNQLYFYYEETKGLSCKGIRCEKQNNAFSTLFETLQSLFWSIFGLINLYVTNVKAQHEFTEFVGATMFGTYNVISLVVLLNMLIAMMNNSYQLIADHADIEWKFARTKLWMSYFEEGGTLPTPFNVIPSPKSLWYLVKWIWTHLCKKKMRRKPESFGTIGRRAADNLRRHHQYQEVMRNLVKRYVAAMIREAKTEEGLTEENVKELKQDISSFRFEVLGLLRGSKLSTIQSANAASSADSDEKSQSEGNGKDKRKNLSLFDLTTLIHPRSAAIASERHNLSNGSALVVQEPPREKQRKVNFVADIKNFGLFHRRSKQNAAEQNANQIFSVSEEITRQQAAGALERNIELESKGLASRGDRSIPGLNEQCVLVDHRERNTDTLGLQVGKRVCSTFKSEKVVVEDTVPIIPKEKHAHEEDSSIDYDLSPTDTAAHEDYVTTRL

[13] = inhibitors of intracellular T. cruzi replication, confirmation, NIH3T3 host cells, beta-gal luminescence (AID 2044); format: functional, cell-based;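 also: intracellular parasites grown in NIH/3T3 mouse fibroblasts as host cells; luminescent beta-galactosidase reporter signal from transgenic T. cruzi replicating inside host cells; inhibitors lower the luminescence signal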
cells [14] = assay: cells; remark: listed apart in the source
[15] = target: T3, Short transient receptor potential channel 4; assay: mouse TRPC4 channel inhibitors, dose response, cell-based, HEK293 TRPC4/mu-opioid, Fluo-4 calcium (AID 434942); format: functional;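 also: potency of inhibitors blocking the TRPC4 calcium response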
[16] = THP-1 cell cytotoxicity, dose response, cytotoxicity control for non-replicating M. tuberculosis project (AID 489025); format: functional
[17] = HepG2 cell cytotoxicity, dose response, cytotoxicity control for non-replicating M. tuberculosis project (AID 489018); format: functional; conditions: Mycobacterium tuberculosis
cells [18] = format: functional
[19] = Vero E6 cell cytotoxicity, dose response, cytotoxicity control for non-replicating M. tuberculosis project, secondary assay (AID 492998); format: functional, VeroE6; conditions: Vero C1008
[20] = target: T4, Corticotropin-releasing factor receptor 2/Corticotropin-releasing factor-binding protein (Homo sapiens, UniProt P24387+Q13324); assay: activators of CRF receptor 2 with binding protein – uHTS hits, confirmation (AID 602473); format: functional; conditions: read-out: EC50_Mean
T4 sequence (Q13324 whole entry): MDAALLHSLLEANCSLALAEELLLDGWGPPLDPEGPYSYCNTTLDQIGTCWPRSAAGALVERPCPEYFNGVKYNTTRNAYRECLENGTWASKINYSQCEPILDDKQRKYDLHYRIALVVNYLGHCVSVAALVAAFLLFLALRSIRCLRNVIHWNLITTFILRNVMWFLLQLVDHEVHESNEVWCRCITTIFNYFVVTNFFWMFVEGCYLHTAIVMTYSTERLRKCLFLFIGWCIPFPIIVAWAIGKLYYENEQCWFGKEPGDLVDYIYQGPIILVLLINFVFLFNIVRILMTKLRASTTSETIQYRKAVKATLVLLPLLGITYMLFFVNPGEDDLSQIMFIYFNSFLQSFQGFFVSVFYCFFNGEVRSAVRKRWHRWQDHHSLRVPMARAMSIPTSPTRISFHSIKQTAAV
T4 sequence (P24387 whole entry): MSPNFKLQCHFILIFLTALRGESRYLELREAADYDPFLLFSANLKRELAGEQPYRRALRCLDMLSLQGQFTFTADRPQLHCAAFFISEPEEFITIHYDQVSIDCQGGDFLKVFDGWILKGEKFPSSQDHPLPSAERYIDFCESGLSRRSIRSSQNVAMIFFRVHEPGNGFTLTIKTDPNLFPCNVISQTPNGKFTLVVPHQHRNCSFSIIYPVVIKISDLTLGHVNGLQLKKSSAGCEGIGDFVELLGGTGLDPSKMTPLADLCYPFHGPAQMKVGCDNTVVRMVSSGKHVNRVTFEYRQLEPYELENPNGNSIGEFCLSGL

[21] = target: Eukaryotic translation initiation factor 4E (Mus musculus, UniProt P63073); assay: eIF4E–eIF4G protein interaction inhibitors, dose response, biochemical, TR-FRET (AID 855); format: functional;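 also: potency for disrupting eIF4E binding to eIF4GI seen as loss of FRET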
[22] = target: T5, Voltage-gated N-type calcium channel alpha-1B subunit/Amyloid beta A4 precursor protein-binding family A member 1 (Homo sapiens, UniProt Q00975+Q02410); format: protein assay
[23] = target: T5, Voltage-gated N-type calcium channel alpha-1B subunit/Amyloid beta A4 precursor protein-binding family A member 1; format: protein assay; remark: listed apart in the source
[24] = microbe, parasite or virus in culture; format: functional; conditions: Mycobacterium tuberculosis
[25] = Luminescence Cell-Based Dose Retest to Confirm Inhibitors of Cancer Stem Cells. [Related pubchem assays (depositor defined):AID2717, AID2721]; format: functional; conditions: Homo sapiens
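For AC50 in this document: cells exposed to compound for roughly 70 hours or longer before luminescence read.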

Sequence of Eukaryotic translation initiation factor 4E (P63073 whole entry): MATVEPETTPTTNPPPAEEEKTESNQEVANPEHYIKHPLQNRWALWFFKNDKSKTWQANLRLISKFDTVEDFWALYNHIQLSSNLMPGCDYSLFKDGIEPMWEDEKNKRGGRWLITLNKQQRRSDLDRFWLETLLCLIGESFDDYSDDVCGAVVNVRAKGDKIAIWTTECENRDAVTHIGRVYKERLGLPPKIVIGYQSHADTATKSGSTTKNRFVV
Sequence of Glyceraldehyde-3-phosphate dehydrogenase (P04406 whole entry): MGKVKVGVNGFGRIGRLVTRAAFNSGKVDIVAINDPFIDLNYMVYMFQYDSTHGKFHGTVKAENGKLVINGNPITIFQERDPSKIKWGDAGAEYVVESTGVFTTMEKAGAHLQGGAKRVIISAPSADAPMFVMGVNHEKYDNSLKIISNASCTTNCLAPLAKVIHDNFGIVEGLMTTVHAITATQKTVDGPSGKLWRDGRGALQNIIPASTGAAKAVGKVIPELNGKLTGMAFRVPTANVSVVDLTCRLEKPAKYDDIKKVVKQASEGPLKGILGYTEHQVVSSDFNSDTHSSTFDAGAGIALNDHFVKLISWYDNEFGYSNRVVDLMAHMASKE
Sequence of Polyadenylate-binding protein 1 (P11940 whole entry): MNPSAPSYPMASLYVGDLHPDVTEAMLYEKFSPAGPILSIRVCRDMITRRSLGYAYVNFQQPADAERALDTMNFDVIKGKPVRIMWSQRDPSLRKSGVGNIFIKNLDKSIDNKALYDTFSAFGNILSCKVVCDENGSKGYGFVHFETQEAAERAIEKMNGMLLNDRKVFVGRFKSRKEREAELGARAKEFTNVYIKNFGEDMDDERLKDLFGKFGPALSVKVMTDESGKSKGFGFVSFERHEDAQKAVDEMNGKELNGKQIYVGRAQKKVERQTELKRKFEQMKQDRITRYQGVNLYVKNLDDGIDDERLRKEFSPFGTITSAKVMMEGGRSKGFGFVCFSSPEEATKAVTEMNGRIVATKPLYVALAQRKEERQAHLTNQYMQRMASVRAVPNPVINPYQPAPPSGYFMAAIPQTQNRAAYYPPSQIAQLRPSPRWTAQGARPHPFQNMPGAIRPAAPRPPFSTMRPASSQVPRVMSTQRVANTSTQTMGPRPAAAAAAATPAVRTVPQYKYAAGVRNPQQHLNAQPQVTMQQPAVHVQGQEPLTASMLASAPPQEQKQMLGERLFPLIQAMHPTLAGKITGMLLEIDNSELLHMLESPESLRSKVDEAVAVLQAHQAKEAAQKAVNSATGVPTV
T5 sequence (Q00975 whole entry): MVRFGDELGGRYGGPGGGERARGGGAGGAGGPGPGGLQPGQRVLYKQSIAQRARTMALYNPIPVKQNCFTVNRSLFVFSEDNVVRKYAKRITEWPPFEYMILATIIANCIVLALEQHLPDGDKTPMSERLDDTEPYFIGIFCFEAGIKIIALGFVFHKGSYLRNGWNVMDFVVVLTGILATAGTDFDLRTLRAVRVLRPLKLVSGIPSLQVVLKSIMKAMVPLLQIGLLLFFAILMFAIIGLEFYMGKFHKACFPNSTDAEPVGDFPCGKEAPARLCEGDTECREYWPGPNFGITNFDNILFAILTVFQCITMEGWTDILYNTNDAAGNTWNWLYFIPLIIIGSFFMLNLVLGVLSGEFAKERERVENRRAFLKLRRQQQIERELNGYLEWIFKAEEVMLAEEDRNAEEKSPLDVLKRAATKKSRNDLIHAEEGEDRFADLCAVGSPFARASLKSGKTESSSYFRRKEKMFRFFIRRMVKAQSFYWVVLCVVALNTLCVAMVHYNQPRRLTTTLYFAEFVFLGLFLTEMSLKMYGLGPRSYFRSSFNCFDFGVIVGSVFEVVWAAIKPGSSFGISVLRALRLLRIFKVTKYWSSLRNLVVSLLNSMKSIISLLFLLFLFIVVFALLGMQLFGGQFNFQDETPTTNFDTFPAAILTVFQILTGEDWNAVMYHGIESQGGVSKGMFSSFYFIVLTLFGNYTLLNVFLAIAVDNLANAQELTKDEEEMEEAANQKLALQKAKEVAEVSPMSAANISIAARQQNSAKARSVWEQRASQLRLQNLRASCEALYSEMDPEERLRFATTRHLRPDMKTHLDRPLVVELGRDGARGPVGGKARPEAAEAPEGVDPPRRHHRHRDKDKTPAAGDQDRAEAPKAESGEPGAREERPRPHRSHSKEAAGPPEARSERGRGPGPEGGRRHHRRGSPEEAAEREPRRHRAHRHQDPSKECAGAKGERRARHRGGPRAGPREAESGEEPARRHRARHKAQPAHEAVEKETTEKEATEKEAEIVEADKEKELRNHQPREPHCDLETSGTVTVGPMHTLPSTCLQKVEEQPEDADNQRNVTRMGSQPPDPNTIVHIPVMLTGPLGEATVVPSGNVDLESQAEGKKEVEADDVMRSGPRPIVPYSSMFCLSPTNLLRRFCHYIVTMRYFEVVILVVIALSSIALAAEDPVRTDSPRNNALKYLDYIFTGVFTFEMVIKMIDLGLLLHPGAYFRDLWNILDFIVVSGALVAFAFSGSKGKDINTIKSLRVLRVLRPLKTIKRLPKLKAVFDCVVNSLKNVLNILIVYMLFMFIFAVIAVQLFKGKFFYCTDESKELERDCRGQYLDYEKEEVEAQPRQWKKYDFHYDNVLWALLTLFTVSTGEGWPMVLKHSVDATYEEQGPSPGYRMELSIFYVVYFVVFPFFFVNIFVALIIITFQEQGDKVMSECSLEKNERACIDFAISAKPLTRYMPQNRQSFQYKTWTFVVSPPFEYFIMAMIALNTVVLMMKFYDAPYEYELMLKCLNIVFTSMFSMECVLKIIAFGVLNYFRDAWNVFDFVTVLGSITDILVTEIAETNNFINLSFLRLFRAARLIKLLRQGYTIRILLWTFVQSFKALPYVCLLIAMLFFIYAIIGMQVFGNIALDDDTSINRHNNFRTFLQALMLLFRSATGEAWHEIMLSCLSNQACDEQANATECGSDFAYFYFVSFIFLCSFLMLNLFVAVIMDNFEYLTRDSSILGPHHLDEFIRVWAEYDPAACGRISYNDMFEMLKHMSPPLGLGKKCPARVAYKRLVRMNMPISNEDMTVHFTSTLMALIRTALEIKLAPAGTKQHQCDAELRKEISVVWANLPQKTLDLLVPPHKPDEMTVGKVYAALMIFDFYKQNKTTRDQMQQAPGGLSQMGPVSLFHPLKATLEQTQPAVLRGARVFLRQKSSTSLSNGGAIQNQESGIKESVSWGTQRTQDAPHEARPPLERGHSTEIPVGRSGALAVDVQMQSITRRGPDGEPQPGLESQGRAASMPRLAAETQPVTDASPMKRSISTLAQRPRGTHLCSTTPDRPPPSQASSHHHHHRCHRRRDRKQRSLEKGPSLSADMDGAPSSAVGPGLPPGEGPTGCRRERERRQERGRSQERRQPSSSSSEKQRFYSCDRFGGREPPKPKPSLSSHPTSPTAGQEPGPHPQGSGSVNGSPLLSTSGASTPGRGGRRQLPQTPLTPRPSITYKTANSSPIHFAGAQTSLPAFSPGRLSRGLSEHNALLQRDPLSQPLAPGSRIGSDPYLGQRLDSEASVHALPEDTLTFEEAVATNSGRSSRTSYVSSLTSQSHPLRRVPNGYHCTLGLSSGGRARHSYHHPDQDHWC
T5 sequence (Q02410 whole entry): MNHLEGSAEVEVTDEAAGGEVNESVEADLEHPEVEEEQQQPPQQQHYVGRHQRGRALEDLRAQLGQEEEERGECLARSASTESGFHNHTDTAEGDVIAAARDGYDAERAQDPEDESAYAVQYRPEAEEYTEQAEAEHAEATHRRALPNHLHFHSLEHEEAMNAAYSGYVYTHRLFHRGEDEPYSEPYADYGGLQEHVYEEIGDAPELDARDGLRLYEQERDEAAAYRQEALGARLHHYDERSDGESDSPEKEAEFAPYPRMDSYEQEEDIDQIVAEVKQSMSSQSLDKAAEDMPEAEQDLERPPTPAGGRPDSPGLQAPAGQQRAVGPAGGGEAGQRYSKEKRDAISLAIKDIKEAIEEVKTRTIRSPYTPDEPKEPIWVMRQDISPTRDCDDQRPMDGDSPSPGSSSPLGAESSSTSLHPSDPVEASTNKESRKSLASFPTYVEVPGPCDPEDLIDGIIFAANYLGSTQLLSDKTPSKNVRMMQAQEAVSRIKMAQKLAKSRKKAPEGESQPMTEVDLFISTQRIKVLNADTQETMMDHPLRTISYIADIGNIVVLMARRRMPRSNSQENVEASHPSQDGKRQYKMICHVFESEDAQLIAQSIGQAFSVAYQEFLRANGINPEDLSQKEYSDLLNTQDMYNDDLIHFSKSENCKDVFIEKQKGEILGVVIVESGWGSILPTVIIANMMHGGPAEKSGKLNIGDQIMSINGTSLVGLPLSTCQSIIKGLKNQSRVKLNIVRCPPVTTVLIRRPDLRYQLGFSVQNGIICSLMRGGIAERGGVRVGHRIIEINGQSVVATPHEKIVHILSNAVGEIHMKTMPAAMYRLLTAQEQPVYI
Sequence of DNA dC->dU-editing enzyme APOBEC-3A (P31941 whole entry): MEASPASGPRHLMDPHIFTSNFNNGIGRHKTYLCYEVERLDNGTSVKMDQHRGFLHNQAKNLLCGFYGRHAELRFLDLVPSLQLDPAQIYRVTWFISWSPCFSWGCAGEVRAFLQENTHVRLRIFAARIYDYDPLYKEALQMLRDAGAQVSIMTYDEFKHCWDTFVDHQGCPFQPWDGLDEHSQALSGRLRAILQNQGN

For CN(C)C1=C(Cl)C(=O)N(c2ccc(Cl)c(Cl)c2)C1=O, the IC50 [1] was > 100 µM (not active), the IC50 (Bcl-2-related protein A1 [2]) was 0.54 µM (active) and the IC50 (Bcl-2-related protein A1 [3]) was 0.419 µM (active).

With CN1CCN(C2=C(Cl)C(=O)N(c3ccccc3Cl)C2=O)CC1 the IC50 [1] was > 100 µM (not active), the IC50 (Bcl-2-related protein A1 [2]) was 1.45 µM (active) and the IC50 (Bcl-2-related protein A1 [3]) was 2.16 µM (active).

For C=CCNC1=N[C@@H](c2cccc(C(F)(F)F)c2)C(C(=O)OC)=C(C)N1CC, the IC50 [4] was 3.56 µM (active), the IC50 [5] was 3.81 µM (active) and the IC50 [6] was 9.23 µM (active). For the same compound, the IC50 [7] was > 100 µM (inactive).

With Cc1cc(NC(=O)CSc2cn(CCNC(=O)c3ccc(Cl)cc3)c3ccccc23)no1 the EC50 [8] was 0.13 µM (active) and the IC50 (Estrogen receptor) was 24.9 µM (active).

With COc1cccc(NC(=O)CSc2nc3ccccc3nc2N2CCCC2)c1 the IC50 (cells [9]) was 30.5 µM (active) and the CC50 [10] was 17.2 µM (active).

For COc1ccccc1/C=C/CN1CCCC(CCC(=O)NCc2ccccc2F)C1 (stereo not given), the EC50 [11] was > 60 µM (not active), the EC50 [12] was 0.473 µM (active) and the EC50 [13] was < 0.1 µM (active). For the same compound, the EC50 (cells [14]) was 0.025 µM (active).

With CCOC(=O)c1ccc2c(c1)[n+](CCO)c(C)n2CC the IC50 [6] was 3.29 µM (active) and the IC50 [7] was > 100 µM (inactive).

In the case of O=C(CSc1nc2ccccc2c(=O)n1-c1ccccc1)NCC1CCCO1 (stereo not given), the IC50 [6] was 6.35 µM (active) and the IC50 [7] was > 100 µM (inactive).

In the case of Clc1ccc(C[n+]2cc(-c3ccccc3)n3c2CCC3)cc1Cl, the EC50 [15] was 3.76 µM (active), the EC50 [11] was > 30 µM (not active) and the EC50 [13] was < 0.1 µM (active). The EC50 (cells [14]) was 0.004 µM (active).

With CCCN(CCC)S(=O)(=O)c1ccc(C(=O)Nc2nnc(-c3cccc(OC)c3)o2)cc1 the CC50 [16] was 1.49 µM (active), the CC50 [17] was 12.4 µM (active) and the IC50 (cells [18]) was 15.1 µM (active). The CC50 [19] was 3.51 µM (active) and the EC50 [20] was 5.45 µM (active).

In the case of Cc1ccc(OCCn2c(C3CC(=O)N(Cc4ccccc4)C3)nc3ccccc32)cc1 (stereo not given), the IC50 (cells [9]) was 3.14 µM (active) and the CC50 [10] was 25.4 µM (active).

With CCNc1ccc(C(=O)OCC(=O)NC(C)c2ccccc2)cc1[N+](=O)[O-] (stereo not given) the IC50 [21] was > 64 µM (inactive).

For CC(Oc1ccc(Cl)cc1Cl)C(=O)NNC(=O)C(=O)N1CCCCC1 (stereo not given), the IC50 (cells [9]) was 40.6 µM (active) and the CC50 [10] was > 50 µM (active).

With NC(=O)c1ccc2c(O)c(O)c(-c3cc(Cl)c(N)c(Cl)c3)nc2c1 the IC50 [22] was 14.1 µM (active) and the IC50 [23] was 28.9 µM (active).

In the case of O=C(NC1CCCCCCC1)C1CCN(S(=O)(=O)N2CCCC2)CC1, the IC50 [21] was > 64 µM (inactive).

With O=C1C(Cl)=C(N2CCOCC2)C(=O)N1c1cccc([N+](=O)[O-])c1 the IC50 [1] was > 100 µM (not active), the IC50 (Bcl-2-related protein A1 [2]) was 8.21 µM (active) and the IC50 (Bcl-2-related protein A1 [3]) was 9.68 µM (active).

For C=CCn1c(S)nnc1-c1ccoc1, the IC50 [21] was > 64 µM (inactive).

In the case of CC(=O)c1cccc(NC(=O)Cc2cccs2)c1, the IC50 (Estrogen receptor) was 18.5 µM (active).

In the case of COc1cc(CNCCc2ccccc2)cc(Cl)c1OCc1ccccc1, the CC50 [16] was 13.7 µM (active), the CC50 [24] was 22.9 µM (active) and the CC50 [17] was 15.5 µM (active). The IC50 (cells [18]) was 13.9 µM (active), the CC50 [19] was 17.4 µM (active) and the AC50 [25] was 5.32 µM (active).
